# Columns and labels:
# Assay in all cases: biochemical
# Type in all cases: biochemical
# panel of 391 kinases [1] = biological target: panel of 391 kinases (Homo sapiens, UniProt Q9UPZ9); details: LCK2/ICK, MK-28 1 µM, ATP 1 µM
# panel of 391 kinases [2] = biological target: panel of 391 kinases (Homo sapiens, UniProt Q8NEV4); details: MYO3A, MK-28 1 µM, ATP 1 µM
# panel of 391 kinases [3] = biological target: panel of 391 kinases (Homo sapiens, UniProt Q9P289); details: MST4, MK-28 1 µM, ATP 1 µM
# panel of 391 kinases [4] = biological target: panel of 391 kinases (Homo sapiens, UniProt Q16512); details: PKN1/PRK1, MK-28 1 µM, ATP 1 µM
# panel of 391 kinases [5] = biological target: panel of 391 kinases (Homo sapiens, UniProt P29317); details: EPHA2, MK-28 1 µM, ATP 1 µM
# panel of 391 kinases [6] = biological target: panel of 391 kinases (Homo sapiens, UniProt P78368); details: CK1g2, MK-28 1 µM, ATP 1 µM
# panel of 391 kinases [7] = biological target: panel of 391 kinases (Homo sapiens, UniProt P52333); details: JAK3, MK-28 1 µM, ATP 1 µM
# panel of 391 kinases [8] = biological target: panel of 391 kinases (Homo sapiens, UniProt P41240); details: CSK, MK-28 1 µM, ATP 1 µM
# panel of 391 kinases [9] = biological target: panel of 391 kinases (Homo sapiens, UniProt P52564); details: MKK6, MK-28 1 µM, ATP 1 µM
# panel of 391 kinases [10] = biological target: panel of 391 kinases (Homo sapiens, UniProt O75116); details: ROCK2, MK-28 1 µM, ATP 1 µM
# panel of 391 kinases [11] = biological target: panel of 391 kinases (Homo sapiens, UniProt Q13882); details: BRK, MK-28 1 µM, ATP 1 µM
# panel of 391 kinases [12] = biological target: panel of 391 kinases (Homo sapiens, UniProt Q13043); details: MST1/STK4, MK-28 1 µM, ATP 1 µM
# panel of 391 kinases [13] = biological target: panel of 391 kinases (Homo sapiens, UniProt O60674); details: JAK2, MK-28 1 µM, ATP 1 µM
# panel of 391 kinases [14] = biological target: panel of 391 kinases (Homo sapiens, UniProt O00238); details: ALK6/BMPR1B, MK-28 1 µM, ATP 1 µM
# panel of 391 kinases [15] = biological target: panel of 391 kinases (Homo sapiens, UniProt O14733); details: MKK7, MK-28 1 µM, ATP 1 µM
# panel of 391 kinases [16] = biological target: panel of 391 kinases (Homo sapiens, UniProt Q8N4C8); details: MINK/MINK1, MK-28 1 µM, ATP 1 µM
# panel of 391 kinases [17] = biological target: panel of 391 kinases (Homo sapiens, UniProt Q9NYL2); details: ZAK/MLTK, MK-28 1 µM, ATP 1 µM
# panel of 391 kinases [18] = biological target: panel of 391 kinases (Homo sapiens, UniProt O60285); details: ARK5/NUAK1, MK-28 1 µM, ATP 1 µM
# panel of 391 kinases [19] = biological target: panel of 391 kinases (Homo sapiens, UniProt Q14289); details: PYK2, MK-28 1 µM, ATP 1 µM
# panel of 391 kinases [20] = biological target: panel of 391 kinases (Homo sapiens, UniProt P51817); details: PRKX, MK-28 1 µM, ATP 1 µM
# panel of 391 kinases [21] = biological target: panel of 391 kinases (Homo sapiens, UniProt P04626); details: ERBB2/HER2, MK-28 1 µM, ATP 1 µM
# panel of 391 kinases [22] = biological target: panel of 391 kinases (Homo sapiens, UniProt Q13555); details: CAMK2g, MK-28 1 µM, ATP 1 µM
# panel of 391 kinases [23] = biological target: panel of 391 kinases (Homo sapiens, UniProt P53778); details: P38g, MK-28 1 µM, ATP 1 µM
# panel of 391 kinases [24] = biological target: panel of 391 kinases (Homo sapiens, UniProt O94806); details: PKCnu/PRKD3, MK-28 1 µM, ATP 1 µM
# panel of 391 kinases [25] = biological target: panel of 391 kinases (Homo sapiens, UniProt Q9Y2H1); details: STK38L/NDR2, MK-28 1 µM, ATP 1 µM
# panel of 391 kinases [26] = biological target: panel of 391 kinases (Homo sapiens, UniProt P04629); details: TRKA, MK-28 1 µM, ATP 1 µM
# panel of 391 kinases [27] = biological target: panel of 391 kinases (Homo sapiens, UniProt O96017); details: CHK2, MK-28 1 µM, ATP 1 µM
# [28] = read-out: % Enzyme Activity (relative to DMSO controls)
smiles,measurement,setting,value
CN(/N=C\c1ccc(O)c(O)c1)c1nc(-c2ccccc2)cc(-c2ccccc2)n1 [MK-28],% Enzyme Activity (relative to DMSO controls),panel of 391 kinases [1],99.01%
same,remaining activity at 1 µM,panel of 391 kinases [1]; [28],99.2%
same,% Enzyme Activity (relative to DMSO controls),panel of 391 kinases [2],104.11%
same,remaining activity at 1 µM,panel of 391 kinases [2]; [28],104%
same,% Enzyme Activity (relative to DMSO controls),panel of 391 kinases [3],101.40%
same,remaining activity at 1 µM,panel of 391 kinases [3]; [28],102%
same,% Enzyme Activity (relative to DMSO controls),panel of 391 kinases [4],112.74%
same,remaining activity at 1 µM,panel of 391 kinases [4]; [28],113%
same,% Enzyme Activity (relative to DMSO controls),panel of 391 kinases [5],99.61%
same,remaining activity at 1 µM,panel of 391 kinases [5]; [28],100%
same,% Enzyme Activity (relative to DMSO controls),panel of 391 kinases [6],83.33%
same,remaining activity at 1 µM,panel of 391 kinases [6]; [28],87%
same,% Enzyme Activity (relative to DMSO controls),panel of 391 kinases [7],104.48%
same,remaining activity at 1 µM,panel of 391 kinases [7]; [28],106%
same,% Enzyme Activity (relative to DMSO controls),panel of 391 kinases [8],96.35%
same,remaining activity at 1 µM,panel of 391 kinases [8]; [28],96.9%
same,% Enzyme Activity (relative to DMSO controls),panel of 391 kinases [9],94.11%
same,remaining activity at 1 µM,panel of 391 kinases [9]; [28],95.6%
same,% Enzyme Activity (relative to DMSO controls),panel of 391 kinases [10],90.11%
same,remaining activity at 1 µM,panel of 391 kinases [10]; [28],90.5%
same,% Enzyme Activity (relative to DMSO controls),panel of 391 kinases [11],102.30%
same,remaining activity at 1 µM,panel of 391 kinases [11]; [28],104%
same,% Enzyme Activity (relative to DMSO controls),panel of 391 kinases [12],85.69%
same,remaining activity at 1 µM,panel of 391 kinases [12]; [28],93.7%
same,% Enzyme Activity (relative to DMSO controls),panel of 391 kinases [13],91.77%
same,remaining activity at 1 µM,panel of 391 kinases [13]; [28],93.8%
same,% Enzyme Activity (relative to DMSO controls),panel of 391 kinases [14],100.96%
same,remaining activity at 1 µM,panel of 391 kinases [14]; [28],101%
same,% Enzyme Activity (relative to DMSO controls),panel of 391 kinases [15],95.27%
same,remaining activity at 1 µM,panel of 391 kinases [15]; [28],96.9%
same,% Enzyme Activity (relative to DMSO controls),panel of 391 kinases [16],95.98%
same,remaining activity at 1 µM,panel of 391 kinases [16]; [28],98.7%
same,% Enzyme Activity (relative to DMSO controls),panel of 391 kinases [17],104.97%
same,remaining activity at 1 µM,panel of 391 kinases [17]; [28],105%
same,% Enzyme Activity (relative to DMSO controls),panel of 391 kinases [18],91.19%
same,remaining activity at 1 µM,panel of 391 kinases [18]; [28],93.8%
same,% Enzyme Activity (relative to DMSO controls),panel of 391 kinases [19],101.51%
same,remaining activity at 1 µM,panel of 391 kinases [19]; [28],103%
same,% Enzyme Activity (relative to DMSO controls),panel of 391 kinases [20],101.69%
same,remaining activity at 1 µM,panel of 391 kinases [20]; [28],104%
same,% Enzyme Activity (relative to DMSO controls),panel of 391 kinases [21],98.41%
same,remaining activity at 1 µM,panel of 391 kinases [21]; [28],99.3%
same,% Enzyme Activity (relative to DMSO controls),panel of 391 kinases [22],86.57%
same,remaining activity at 1 µM,panel of 391 kinases [22]; [28],87.8%
same,% Enzyme Activity (relative to DMSO controls),panel of 391 kinases [23],100.96%
same,remaining activity at 1 µM,panel of 391 kinases [23]; [28],107%
same,% Enzyme Activity (relative to DMSO controls),panel of 391 kinases [24],97.83%
same,remaining activity at 1 µM,panel of 391 kinases [24]; [28],98.1%
same,% Enzyme Activity (relative to DMSO controls),panel of 391 kinases [25],94.10%
same,remaining activity at 1 µM,panel of 391 kinases [25]; [28],96%
same,% Enzyme Activity (relative to DMSO controls),panel of 391 kinases [26],106.86%
same,remaining activity at 1 µM,panel of 391 kinases [26]; [28],108%
same,% Enzyme Activity (relative to DMSO controls),panel of 391 kinases [27],98.51%
same,remaining activity at 1 µM,panel of 391 kinases [27]; [28],101%
